Assay results: patent US20260334439A1, “BCAT2 INHIBITORS” (Agios Pharmaceuticals, Inc., priority 2023, published 2026)

Columns and labels:
BCAT2 [1] = molecular target: T1, BCAT2 (Homo sapiens, UniProt O15382); test: BCAT2 in vitro enzyme inhibition assay (hBCAT2, glutamate dehydrogenase/diaphorase/resazurin coupled fluorescence read); format: biochemical; conditions: hBCAT2, 1 h preincubation at 25° C., one hour reaction; average where tested multiple times
T1 sequence (O15382 28-392): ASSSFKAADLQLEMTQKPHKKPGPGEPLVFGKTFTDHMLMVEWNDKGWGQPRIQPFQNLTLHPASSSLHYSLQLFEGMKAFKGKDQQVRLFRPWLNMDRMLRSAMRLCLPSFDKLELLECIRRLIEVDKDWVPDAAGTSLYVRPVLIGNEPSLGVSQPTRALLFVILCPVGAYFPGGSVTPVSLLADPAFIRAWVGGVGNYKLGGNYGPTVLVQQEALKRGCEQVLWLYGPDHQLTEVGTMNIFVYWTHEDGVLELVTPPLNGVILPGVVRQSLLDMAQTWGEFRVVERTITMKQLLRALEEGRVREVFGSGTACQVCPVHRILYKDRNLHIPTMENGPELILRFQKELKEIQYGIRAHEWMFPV
How it was run: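 hBCAT2 (0.33 μg/mL in mix) preincubated 1 h at 25 °C with compound (top 100 μM, 3-fold, 10 points) in Tris pH 8.0/NaCl/BSA; substrate mix added (L-leucine, α-ketoglutarate, GDH, NAD, diaphorase, resazurin), quenched with SDS after 1 h, fluorescence Ex 540/Em 590; duplicates, repeat tests averaged.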

BCAT2 [2] = molecular target: T1, BCAT2; test: BCAT2 cell inhibition using engineered A549 cells (MUT KO, BCAT1 KO; 13C6-KMV formation by LC-MS/MS); format: cell-based; design: expressed endogenous BCAT2; endogenous in cells; host or cells: A549 cells, MUT knockout and BCAT1 knockout
How it was run: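 Medium 13C6-KMV formation is read by LC-MS/MS after PFBHA derivatization with d8-KMV internal standard. Cells are CRISPR MUT/BCAT1 double-knockout A549 expressing endogenous BCAT2, given compound 15 min before labelled isoleucine (800 uM, added 1:1) for 24 h. CTG viability run in parallel; replicates averaged.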

[3] = read-out: BCAT2 Cell Inhibition (IC50), engineered A549 cells, 24 hours, 13C6-KMV in media, average where tested multiple times

| IC50 (BCAT2 [1]) | IC50 (BCAT2 [2]) | IC50 (BCAT2 [2]; [3]) | SMILES |
| --- | --- | --- | --- |
| < 100 nM | < 100 nM |  | CO[C@H]1C[C@H](NC(=O)c2cc(F)ccn2)C[C@H](n2c(-c3ccccc3F)nc3cnc(-c4nc[nH]n4)cc32)C1 [Example 113, 4-fluoro-N-((1R,3S,5S)-3-(2-(2-fluorophenyl)-6-(1H-1,2,4-triazol-3-yl)-1H-imidazo[4,5-c]pyridin-1-yl)-5-methoxycyclohexyl)picolinamide] |
| < 100 nM | < 100 nM |  | CO[C@@H]1C[C@H](NC(=O)c2cc(F)ccn2)C[C@H](n2c(-c3ccccc3F)nc3cnc(-c4nc[nH]n4)cc32)C1 [Example 114, 4-fluoro-N-((1R,3S,5R)-3-(2-(2-fluorophenyl)-6-(1H-1,2,4-triazol-3-yl)-1H-imidazo[4,5-c]pyridin-1-yl)-5-methoxycyclohexyl)picolinamide] |
| < 100 nM | < 100 nM |  | CO[C@H]1C[C@H](NC(=O)c2cc(Cl)ccn2)C[C@H](n2c(-c3ccccc3F)nc3cnc(-c4nc[nH]n4)cc32)C1 [Example 116, 4-chloro-N-((1R,3S,5S)-3-(2-(2-fluorophenyl)-6-(1H-1,2,4-triazol-3-yl)-1H-imidazo[4,5-c]pyridin-1-yl)-5-methoxycyclohexyl)picolinamide] |
| < 100 nM | 500 to 1000 nM |  | CO[C@H]1C[C@H](NC(=O)c2cc(Cl)ccn2)C[C@H](n2c(CC(C)C)nc3cnc(-c4ncccn4)cc32)C1 [Example 117, 4-chloro-N-((1R,3S,5S)-3-(2-isobutyl-6-(pyrimidin-2-yl)-1H-imidazo[4,5-c]pyridin-1-yl)-5-methoxycyclohexyl)picolinamide] |
| < 100 nM | < 100 nM |  | CO[C@H]1C[C@H](NC(=O)c2cc(Cl)ccc2OCCO)C[C@H](n2c(-c3ccccc3F)nc3cnc(-c4nc[nH]n4)cc32)C1 [Example 119, 5-chloro-N-((1R,3S,5S)-3-(2-(2-fluorophenyl)-6-(1H-1,2,4-triazol-3-yl)-1H-imidazo[4,5-c]pyridin-1-yl)-5-methoxycyclohexyl)-2-(2-hydroxyethoxy)benzamide] |
| < 100 nM | < 100 nM |  | O=C(N[C@H]1CCC[C@@H](n2c(-c3ccccc3F)nc3cnc(-c4nc[nH]n4)cc32)[C@@H]1O)c1cc(F)ccc1F [Example 120, 2,5-difluoro-N-((1S,2R,3R)-3-(2-(2-fluorophenyl)-6-(1H-1,2,4-triazol-3-yl)-1H-imidazo[4,5-c]pyridin-1-yl)-2-hydroxycyclohexyl)benzamide] |
| < 100 nM | < 100 nM |  | CO[C@H]1C[C@H](NC(=O)c2cc(F)ccc2F)C[C@H](n2c(-c3ccccc3F)nc3cnc(-c4nc[nH]n4)cc32)C1 [Example 122, 2,5-difluoro-N-((1R,3S,5S)-3-(2-(2-fluorophenyl)-6-(1H-1,2,4-triazol-3-yl)-1H-imidazo[4,5-c]pyridin-1-yl)-5-methoxycyclohexyl)benzamide] |
| 100 to 500 nM |  | > 1000 nM | CN1C[C@@H](NC(=O)c2cc(Cl)ccn2)C[C@@H](n2c(-c3ccccc3F)nc3cnc(-c4nc[nH]n4)cc32)C1 [Example 129, 4-chloro-N-((3S,5R)-5-(2-(2-fluorophenyl)-6-(1H-1,2,4-triazol-3-yl)-1H-imidazo[4,5-c]pyridin-1-yl)-1-methylpiperidin-3-yl)picolinamide] |
| < 100 nM | < 100 nM |  | CN1C[C@H](NC(=O)c2cc(Cl)ccn2)C[C@H](n2c(-c3ccccc3F)nc3cnc(-c4nc[nH]n4)cc32)C1 [Example 130, 4-chloro-N-((3R,5S)-5-(2-(2-fluorophenyl)-6-(1H-1,2,4-triazol-3-yl)-1H-imidazo[4,5-c]pyridin-1-yl)-1-methylpiperidin-3-yl)picolinamide] |
| < 100 nM |  | > 1000 nM | CN1C[C@H](NC(=O)c2cc(Cl)ccn2)C[C@H](n2c(-c3ncccc3F)nc3cnc(-c4nc[nH]n4)cc32)C1 [Example 132, 4-chloro-N-((3R,5S)-5-(2-(3-fluoropyridin-2-yl)-6-(1H-1,2,4-triazol-3-yl)-1H-imidazo[4,5-c]pyridin-1-yl)-1-methylpiperidin-3-yl)picolinamide] |
| 100 to 500 nM |  | > 1000 nM | CN1C[C@@H](NC(=O)c2cc(F)ccn2)C[C@@H](n2c(-c3ccccc3F)nc3cnc(-c4nc[nH]n4)cc32)C1 [Example 133, 4-fluoro-N-((3S,5R)-5-(2-(2-fluorophenyl)-6-(1H-1,2,4-triazol-3-yl)-1H-imidazo[4,5-c]pyridin-1-yl)-1-methylpiperidin-3-yl)picolinamide] |
| < 100 nM | 100 to 500 nM |  | CN1C[C@H](NC(=O)c2cc(F)ccn2)C[C@H](n2c(-c3ccccc3F)nc3cnc(-c4nc[nH]n4)cc32)C1 [Example 134, 4-fluoro-N-((3R,5S)-5-(2-(2-fluorophenyl)-6-(1H-1,2,4-triazol-3-yl)-1H-imidazo[4,5-c]pyridin-1-yl)-1-methylpiperidin-3-yl)picolinamide] |
| < 100 nM | 100 to 500 nM |  | COc1ccc(Cl)cc1C(=O)N[C@@H]1C[C@H](n2c(-c3ccccc3F)nc3cnc(-c4nc[nH]n4)cc32)CN(C)C1 [Example 136, 5-chloro-N-((3R,5S)-5-(2-(2-fluorophenyl)-6-(1H-1,2,4-triazol-3-yl)-1H-imidazo[4,5-c]pyridin-1-yl)-1-methylpiperidin-3-yl)-2-methoxybenzamide] |
| 100 to 500 nM |  | > 1000 nM | COc1ccc(Cl)cc1C(=O)N[C@@H]1C[C@H](n2c(-c3ncccc3F)nc3cnc(-c4nc[nH]n4)cc32)CN(C)C1 [Example 137, 5-chloro-N-((3R,5S)-5-(2-(3-fluoropyridin-2-yl)-6-(1H-1,2,4-triazol-3-yl)-1H-imidazo[4,5-c]pyridin-1-yl)-1-methylpiperidin-3-yl)-2-methoxybenzamide] |
| < 100 nM | 100 to 500 nM |  | CN1C[C@H](NC(=O)c2cc(Cl)ccc2F)C[C@H](n2c(-c3ccccc3F)nc3cnc(-c4nc[nH]n4)cc32)C1 [Example 145, 5-chloro-2-fluoro-N-((3R,5S)-5-(2-(2-fluorophenyl)-6-(1H-1,2,4-triazol-3-yl)-1H-imidazo[4,5-c]pyridin-1-yl)-1-methylpiperidin-3-yl)benzamide] |
| < 100 nM | 100 to 500 nM |  | CN1C[C@H](NC(=O)c2cc(Cl)ccc2OCCO)C[C@H](n2c(-c3ccccc3F)nc3cnc(-c4nc[nH]n4)cc32)C1 [Example 150, 5-chloro-N-((3R,5S)-5-(2-(2-fluorophenyl)-6-(1H-1,2,4-triazol-3-yl)-1H-imidazo[4,5-c]pyridin-1-yl)-1-methylpiperidin-3-yl)-2-(2-hydroxyethoxy)benzamide] |
| < 100 nM | 100 to 500 nM |  | CN1C[C@H](NC(=O)c2cc(F)ccc2F)C[C@H](n2c(-c3ccccc3F)nc3cnc(-c4nc[nH]n4)cc32)C1 [Example 153, 2,5-difluoro-N-((3R,5S)-5-(2-(2-fluorophenyl)-6-(1H-1,2,4-triazol-3-yl)-1H-imidazo[4,5-c]pyridin-1-yl)-1-methylpiperidin-3-yl)benzamide] |
| < 100 nM | < 100 nM |  | CC(=O)N1C[C@H](NC(=O)c2cc(F)ccn2)C[C@H](n2c(-c3ccccc3F)nc3cnc(-c4nc(C)co4)cc32)C1 [Example 167, N-((3R,5S)-1-acetyl-5-(2-(2-fluorophenyl)-6-(4-methyloxazol-2-yl)-1H-imidazo[4,5-c]pyridin-1-yl)piperidin-3-yl)-4-fluoropicolinamide] |
| < 100 nM | < 100 nM |  | O=C1c2cc(Cl)ccc2CN1[C@H]1CCC[C@@H](n2c(-c3ccccc3F)nc3cnc(-c4nc[nH]n4)cc32)C1 [Example 168, 6-chloro-2-((1S,3R)-3-(2-(2-fluorophenyl)-6-(1H-1,2,4-triazol-3-yl)-1H-imidazo[4,5-c]pyridin-1-yl)cyclohexyl)isoindolin-1-one] |
| < 100 nM | < 100 nM |  | O=C1c2cc(F)ccc2CN1[C@H]1CCC[C@@H](n2c(-c3ccccc3F)nc3cnc(-c4nc[nH]n4)cc32)C1 [Example 169, 6-fluoro-2-((1S,3R)-3-(2-(2-fluorophenyl)-6-(1H-1,2,4-triazol-3-yl)-1H-imidazo[4,5-c]pyridin-1-yl)cyclohexyl)isoindolin-1-one] |
| < 100 nM | < 100 nM |  | O=C1c2cc(F)ccc2CN1[C@H]1CCC[C@@H](n2c(-c3ncccc3F)nc3cnc(-c4nc[nH]n4)cc32)C1 [Example 170, 6-fluoro-2-((1S,3R)-3-(2-(3-fluoropyridin-2-yl)-6-(1H-1,2,4-triazol-3-yl)-1H-imidazo[4,5-c]pyridin-1-yl)cyclohexyl)isoindolin-1-one] |
| < 100 nM | < 100 nM |  | N#Cc1ccccc1-c1nc2cnc(-c3nc[nH]n3)cc2n1[C@@H]1CCC[C@H](N2Cc3ccc(F)cc3C2=O)C1 [Example 171, 2-(1-((1R,3S)-3-(6-fluoro-1-oxoisoindolin-2-yl)cyclohexyl)-6-(1H-1,2,4-triazol-3-yl)-1H-imidazo[4,5-c]pyridin-2-yl)benzonitrile] |
